Reference: publication PMC12096669, “Structural isomerisation affects the antitubercular activity of adamantyl-isoxyl adducts” (Journal of Enzyme Inhibition and Medicinal Chemistry, 2025)
Converted amounts (≈) assume the structure as drawn. Read-outs that look alike come from different tables or passages of the source.

Tests used:
[1] = system: Mtb mc^27902 pMV261; test: microbe, parasite or virus in culture; format: cell-based; conditions: Mycobacterium tuberculosis
[2] = system: B. cereus NCTC 7464; test: Non-mycobacterial REMA assay; format: cell-based; conditions: Bacillus cereus, NCTC7464, read-out: Minimum inhibitory concentration 95%
[3] = system: S. pyogenes NCTC 8198; test: Non-mycobacterial REMA assay; format: cell-based; conditions: Streptococcus pyogenes, NCTC8198, read-out: Minimum inhibitory concentration 95%
[4] = system: S. agalactiae NCTC 8181; test: Non-mycobacterial REMA assay; format: cell-based; conditions: Streptococcus agalactiae, NCTC8181, read-out: Minimum inhibitory concentration 95%
[5] = system: E. faecalis NCTC 775; test: Non-mycobacterial REMA assay; format: cell-based; conditions: Enterococcus faecalis, NCTC775, read-out: Minimum inhibitory concentration 95%
[6] = system: E. faecium NCTC 7171; test: Non-mycobacterial REMA assay; format: cell-based; conditions: Enterococcus faecium, NCTC7171, read-out: Minimum inhibitory concentration 95%
[7] = system: S. aureus NCTC 2981; test: Non-mycobacterial REMA assay; format: cell-based; conditions: Staphylococcus aureus, NCTC2981, read-out: Minimum inhibitory concentration 95%
[8] = system: K. pneumoniae NCTC 9633; test: Non-mycobacterial REMA assay; format: cell-based; conditions: Klebsiella pneumoniae, NCTC9633, read-out: Minimum inhibitory concentration 95%
[9] = system: A. baumannii NCTC 12156; test: Non-mycobacterial REMA assay; format: cell-based; conditions: Acinetobacter baumannii, NCTC12156, read-out: Minimum inhibitory concentration 95%
[10] = system: P. aeruginosa DSM 19880; test: Non-mycobacterial REMA assay; format: cell-based; conditions: Pseudomonas aeruginosa, DSM19880, read-out: Minimum inhibitory concentration 95%
[11] = system: E. cloacae NCTC 10005; test: Non-mycobacterial REMA assay; format: cell-based; conditions: Enterobacter cloacae, NCTC10005, read-out: Minimum inhibitory concentration 95%
[12] = system: E. coli K12; test: Non-mycobacterial REMA assay; format: cell-based; conditions: Escherichia coli, read-out: Minimum inhibitory concentration 95%
Procedure: (§1) Bacterial minimum inhibition concentrations (MIC) were determined using the Resazurin Microtiter Assay (REMA) method according to Palomino et al.[28] Stock solutions of the tested compounds were prepared in sterile dimethyl sulfoxide (DMSO), then diluted in 7H9OPALPen^1Cyc^10(Kan^25) to obtain a final drug concentration range of 32–0.032 μg/mL. A suspension of the test Mycobacterium was cultured in 7H9OPALPen^1Cyc^10(Kan^25) containing 0.05% v/v Tween^80 for one week at 37 °C, 5% CO2. The bacterial suspension was adjusted to 0.5 McFarland and diluted in 7H9OPALPen^1Cyc^10(Kan^25) 1:25. 100 μL of the inoculum was added to each well of a 96-well microplate together with 100 μL of the compound titration. The plate was incubated at 37 °C, 5% CO2. After 5 days, 10.5 μL 0.1% (w/v) sterile resazurin (solubilised in sterile PBS containing 0.02% v/v Tween^80) was added. Reduced resazurin was detected using fluorescence (Ex/Em 530/590 nm) in a FLUOstar Optima, BMG Labtech. All titre measurements were plotted in SigmaPlot™ and 4-parameter logistic (4PL) model regressions conducted. The relative MIC95 of each curve was calculated and averaged (Table 1). Testing was performed in duplicate with two independent biological repeats. […] Though, for these cultures, dilutions were performed at 1:125 prior to inoculation of the plate and incubation for 4 h (Supplementary Table 3). Known antitubercular agents used in this study were rifampicin (RIF), isoniazid (INH), ISO, EMB, ethionamide (ETH), linezolid (LZD), delamanid (DEL) and moxifloxacin (MOX).

[13] = system: S. enterica NCTC 6754; test: Non-mycobacterial REMA assay; format: cell-based; conditions: Salmonella enterica, NCTC6754, read-out: Minimum inhibitory concentration 95%
Procedure: as §1

[14] = system: RAW264.7 murine macrophage cells; test: cells; format: cell-based; conditions: for viability at 100 µM / IC50: Mus musculus; for viability at 100 µM: RAW264.7, 96 h, RAW264.7 macrophage, 96 h, read-out: MTS percentage survival @ 100 µM; for IC50: RAW264.7 macrophages, 0 to 100 µM, read-out: IC50 (cell viability, MTS assay); for selectivity index (SI): from RAW264.7 IC50 and Mtb MIC95
[15] = system: HepG2 human liver cancer cell line; test: MTS cytotoxicity assay, liver cells; format: cell-based; conditions: 96 h, read-out: MTS percentage survival @ 100 µM
[16] = system: AC10 hybrid adult ventricular cardiomyocytes; test: MTS cytotoxicity assay, cardiomyocytes; format: cell-based; conditions: Homo sapiens, AC10 cardiac, 96 h, read-out: MTS percentage survival @ 100 µM
[17] = system: Mtb mc^27902 pMV261; format: cell-based, Mycobacterium tuberculosis; conditions: in the presence of glucose; 37 °C, 30 min
[18] = system: Mtb mc^27902 pMV261; format: cell-based, Mycobacterium tuberculosis; conditions: for TMM levels (TLC): at the highest concentrations
[19] = system: Mtb mc^27902 pMV261; test: Synergy (two-drug checkerboard style) assay; format: cell-based, Mycobacterium tuberculosis; conditions: in combination with RIF
[20] = system: Mtb mc^27902 pMV261; test: EtBr accumulation assay; format: cell-based, Mycobacterium tuberculosis; conditions: compound at ½ the MIC; absence or presence of glucose; 60 min
[21] = system: M. bovis BCG; conditions: microplate alamar blue assay; cited from earlier work
[22] = system: M. bovis BCG containing the pVVdesA3 overexpression plasmid; parameters: method as in PMID 14559907; conditions: M. bovis BCG with pVVdesA3 overexpression plasmid; microplate alamar blue assay; cited from earlier work
[23] = system: tuberculosis patients; parameters: method as in PMID 5535617; conditions: monotherapy; after an 8-week regimen; cited from earlier work
[24] = system: M. bovis BCG; conditions: library of 52,000 compounds; cited from earlier work
[25] = mc^27902 pMV261, REMA, read-out: Mtb MIC95

Structure (SMILES) | MIC [1, 25] [µg/mL] | MIC [2] [µg/mL] | MIC [3] [µg/mL] | MIC [4] [µg/mL] | MIC [5] [µg/mL] | MIC [6] [µg/mL] | MIC [7] [µg/mL] | MIC [8] [µg/mL] | MIC [9] [µg/mL] | MIC [10] [µg/mL] | MIC [11] [µg/mL] | MIC [12] [µg/mL] | MIC [13] [µg/mL] | viability at 100 µM [14] [%] | IC50 [14] [µM] | selectivity index (SI) [14] | viability at 100 µM [15] [%] | viability at 100 µM [16] [%] | effect on mycolic acid biosynthesis (FAMEs/MAMEs, TLC/autoradiography) [18] | TMM levels (TLC) [18] | other results
CC(C)CCOc1ccc(NC(=S)NC23CC4CC(CC(C4)C2)C3)cc1 [Ad-1-ISO, 1-((3s,5s,7s)-adamantan-1-yl)-3–(4-(isopentyloxy)phenyl)thiourea] | 1.08 | > 32 | > 32 | > 32 | > 32 | > 32 | > 32 | > 32 | > 32 | > 32 | > 32 | > 32 | > 32 | 73.8 ± 7.5 | > 100 | > 100 | 16.1 ± 7.2 | 55 ± 13.2 | Depletion of mycolates into the cell wall was only observed at the highest concentrations tested | slight increase in the TMM levels | efflux of EtBr [17]: significantly increased the overall efflux of EtBr
CC(C)CCOc1ccc(NC(=S)NC2C3CC4CC(C3)CC2C4)cc1 (centres unmarked) [Ad-2-ISO, 1-((1r,3r,5r,7r)-adamantan-2-yl)-3–(4-(isopentyloxy)phenyl)thiourea] | 2.88 | > 32 | > 32 | > 32 | > 32 | > 32 | > 32 | > 32 | > 32 | > 32 | > 32 | > 32 | > 32 | 22.5 ± 0.9 | 95.3 | – | 13.4 ± 5.1 | 51.1 ± 17.7 | more significant reduction in radiolabel incorporation | slight increase in the TMM levels | FICI [19]: 0.52; efflux of EtBr [17]: significantly increased the overall efflux of EtBr; TDM and glucose monomycolate levels (TLC) [18]: decrease in TDM and glucose monomycolate
CC(C)CCOc1ccc(NC(=S)Nc2ccc(OCCC(C)C)cc2)cc1 [ISO, 4,4′-diisoamyloxydiphenylthiourea] | 0.2 | > 32 | > 32 | > 32 | > 32 | > 32 | > 32 | > 32 | > 32 | > 32 | > 32 | > 32 | > 32 | 34.5 | 18.8 | 38 | 95.4 ± 4.3 | 38.9 ± 13.9 | mycolate depletion was observed in both the cell wall-bound and whole cell analysis | not observed | MIC ([1]; values used for the SI, in brackets, […], read-out: MIC95): 0.2 µg/mL; MIC ([1]; values used for the SI, […], read-out: MIC95): 0.49 µM; accumulation of EtBr [20]: increased accumulation of EtBr; TDM and glucose monomycolate levels (TLC) [18]: decrease in TDM and glucose monomycolate; MIC [21]: 3.0 µg/mL (≈ 7.49 µM); MIC [22]: 6.0 µg/mL (≈ 15 µM); patients testing sputum negative [23]: 25%
O=C(N/N=C/c1cccc(F)c1)C12CC3CC(CC(C3)C1)C2 [adamantyl-hydrazone] | – | – | – | – | – | – | – | – | – | – | – | – | – | – | – | – | – | – | – | – | MIC [24]: < 2 µg/mL
